The values that follow come from PubChem BioAssay (NCI).

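Values below derive from 48-hour exposures of cells grown in 96-well plates, with endpoints linearly interpolated between the two concentrations bracketing the appropriate inhibition level. Definition used: TGI = concentration required for complete inhibition of growth.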

Common to all, as to experiment: growth of human tumour cells (NCI), 48 h
Test [1] has as its system CCRF-CEM leukemia.
Test [2] relates to HCC-2998 colon.
The subject of test [3] is HL-60(TB) leukemia.
Test [4] concerns HOP-92 NSCLC.
Test [5] relates to K-562 leukemia.
The test system of test [6] is LOX IMVI melanoma.
Test [7] has as its system M14 melanoma.
Test [8] deals with MDA-MB-435.
Test [9] concerns NCI-H226 lung.
The test system of test [10] is NCI-H23 lung.
In test [11] the test system is NCI/ADR-RES ovarian.
In test [12] the test system is OVCAR-3 ovarian.
For test [13], the system named is OVCAR-5 ovarian.
Test [14] relates to SF-268 CNS.
The test system of test [15] is SK-MEL-2 melanoma.
Test [16] has as its system SW-620 colon.

On to `CCCCC1C(=O)N(c2ccc(S(=O)(=O)Nc3ccccn3)cc2)N(c2ccc(O)c(C(=O)O)c2)C1=O` (stereo not drawn), for which the TGI in test [1], in test [2], in test [3], in test [4], in test [5] and in test [6] was above 100 µM each time. The TGI in test [7], in test [8], in test [9], in [10], in test [11] and in test [12] was above 100 µM each time. For the same molecule, the TGI in [13], in [14], in test [15] and in test [16] was above 100 µM throughout.
As for `CCOC(=O)c1c(C)noc1/N=N/N(CCO)CCO`, the TGI in test [1] is 59.3 µM; in [2] it was 78.3 µM; in test [3], above 100 µM; in [4], 88.5 µM; in [5], above 100 µM; in test [6] it was above 100 µM. In addition, the TGI in test [7] is above 100 µM; in test [8], above 100 µM; in [9], 63.5 µM; in test [10] it was above 100 µM; in test [11] it was above 100 µM; in [12], 59.4 µM. For the same molecule, the TGI in test [13], in test [14] and in [16] was above 100 µM throughout.
For the molecule `Cc1ccc(/C=N/Nc2cc(C)c3ccccc3n2)s1`, the TGI in test [1] is above 100 µM; in test [2], 33.8 µM; in [3], above 100 µM; in [4], 93.8 µM; in [5], 39.2 µM; in test [6] it was 78.9 µM. Besides, the TGI is 42.8 µM in test [7]; above 100 µM in [8]; 52.7 µM in [9]; 96.3 µM in test [10]; 90.6 µM in test [11]; 7.93 µM in [12]. For the same molecule, the TGI was 37.4 µM in [13], above 100 µM in test [14], above 100 µM in test [15] and above 100 µM in test [16].
Turning to `O=c1oc2ccccc2cc1-c1csc(Nc2cc(Cl)cc(Cl)c2)n1`, the TGI in test [1] is above 100 µM; in [2], above 100 µM; in test [3], above 100 µM; in test [4] it was above 58.3 µM; in test [5], above 100 µM; in test [6], 7.62 µM. Besides, the TGI in test [7] is above 72.2 µM; in test [8], above 53.1 µM; in [9], above 56.1 µM; in test [10] it was above 56.7 µM; in test [11], above 83.7 µM; in test [12] it was 35.2 µM. The TGI was above 100 µM in test [13], above 100 µM in test [14], above 100 µM in [15] and 50.9 µM in test [16].
With `N#C/C(=C\c1ccc(F)cc1)c1nc2ccccc2c(=O)[nH]1`, the TGI in test [1], in test [2], in test [3], in test [4], in test [5] and in [6] was above 100 µM each time. Also, the TGI in [7], in [8], in test [9], in test [11], in test [13] and in [14] was above 100 µM throughout. The TGI in test [15] and in [16] was above 100 µM each time.
Consider `CC(C)(Cl)C(Br)CCC(CBr)=C(Cl)CCl` (mixture of isomers), for which the TGI was 0.568 µM in test [1]; above 8.02 µM in test [2]; 2.95 µM in test [3]; 3.5 µM in [4]; 3.75 µM in test [5]; 3.59 µM in [6]. Also, the TGI in test [7] was 3.49 µM; in [8], 3.46 µM; in [9] it was above 2.46 µM; in [10] it was 5.42 µM; in [11], 5.21 µM; in [12] it was above 5.48 µM. The TGI in [13] is above 8.21 µM; in test [14] it was 5.67 µM; in [15], 4.41 µM; in [16] it was 5.6 µM.
As for `COc1ccc(C2C3=C(COC3=O)OC(C)(C)Oc3cc4c(cc32)OCO4)cc1` (stereo not drawn), the TGI was above 100 µM in [1]; 96.9 µM in [2]; above 61.3 µM in test [3]; above 65.8 µM in test [4]; above 61.6 µM in [5]; above 86.8 µM in test [6]. For the same molecule, the TGI in test [7] was above 100 µM; in test [8] it was 14.9 µM; in [9], 99.2 µM; in test [10], above 100 µM; in test [11] it was above 81.6 µM; in test [12] it was above 100 µM. Further, the TGI in test [13], in [14], in test [15] and in test [16] was above 100 µM each time.
Take `c1cc2[nH]snc2c2cncc12`: the TGI in test [1] is above 100 µM; in test [2], above 100 µM; in [3] it was above 100 µM; in test [4] it was 85.7 µM; in test [5] it was above 100 µM; in test [6], above 100 µM. Also, the TGI in [8], in [9], in [10], in test [11], in test [12] and in [13] was above 100 µM in each case. The TGI in test [14], in test [15] and in test [16] was above 100 µM in each case.
Consider `CCOC(=O)CCSS(=O)(=O)C(F)(F)F`, for which the TGI in test [1], in test [2], in test [3], in [4], in [6] and in [7] was above 100 µM throughout. The TGI in [8], in [9], in test [10], in test [11], in [12] and in test [13] was above 100 µM in each case. Besides, the TGI in [15] and in test [16] was above 100 µM in each case.
